Measured values: patent US7419790B2, “Sodium-independent transporter carrying acidic amino acid and its gene” (J-Pharma Co., Ltd, priority 2002, dated 2008)
Blank lines part the entries; values can stand above or below the molecule they belong to.

Columns and labels:
[1] = target: T1, AGT1-4F2hc fusion protein (Mus musculus, UniProt P10852+Q91WN3); assay: Inhibition of 14C-aspartic acid uptake by added amino acids and analogues, oocytes expressing AGT1-4F2hc; assay type: cell-based; conditions: 2 mM non-labeled compound, 14C-aspartic acid 20 μM, sodium-free uptake solution
T1 sequence (Q91WN3+P10852 with tags, fused parts or gaps): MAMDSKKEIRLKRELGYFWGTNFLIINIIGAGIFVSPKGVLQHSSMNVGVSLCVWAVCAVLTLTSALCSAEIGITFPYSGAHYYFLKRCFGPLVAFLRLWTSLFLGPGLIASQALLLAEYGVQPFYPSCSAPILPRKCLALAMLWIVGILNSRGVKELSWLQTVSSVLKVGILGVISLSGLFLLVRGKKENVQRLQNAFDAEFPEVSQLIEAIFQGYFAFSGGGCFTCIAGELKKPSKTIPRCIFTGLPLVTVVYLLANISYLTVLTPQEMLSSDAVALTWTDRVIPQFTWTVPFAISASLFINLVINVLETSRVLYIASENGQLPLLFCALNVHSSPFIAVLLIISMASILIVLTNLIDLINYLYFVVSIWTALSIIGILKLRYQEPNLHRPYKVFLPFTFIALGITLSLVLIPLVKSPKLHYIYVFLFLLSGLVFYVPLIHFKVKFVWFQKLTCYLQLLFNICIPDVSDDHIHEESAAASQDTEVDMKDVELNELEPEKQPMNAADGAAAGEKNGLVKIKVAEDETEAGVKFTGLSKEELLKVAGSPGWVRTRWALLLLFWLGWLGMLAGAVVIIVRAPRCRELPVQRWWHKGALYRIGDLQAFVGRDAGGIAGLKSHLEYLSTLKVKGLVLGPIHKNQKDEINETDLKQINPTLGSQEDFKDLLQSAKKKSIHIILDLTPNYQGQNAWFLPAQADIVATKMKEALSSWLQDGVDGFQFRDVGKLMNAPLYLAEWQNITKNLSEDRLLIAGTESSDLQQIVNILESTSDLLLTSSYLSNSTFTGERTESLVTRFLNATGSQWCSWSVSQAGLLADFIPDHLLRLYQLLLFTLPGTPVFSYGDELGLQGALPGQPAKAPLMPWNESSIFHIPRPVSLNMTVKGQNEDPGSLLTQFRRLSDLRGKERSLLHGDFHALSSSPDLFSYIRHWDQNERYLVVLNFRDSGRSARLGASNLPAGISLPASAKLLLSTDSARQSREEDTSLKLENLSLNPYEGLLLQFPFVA
Protocol: However, a sodium-free uptake solution was used and the uptake ^14C-aspartic acid (20 μM) was measured in the presence and absence of 2 mM of various compounds (non-labeled).

[2] = target: T1, AGT1-4F2hc fusion protein; assay: Michaelis-Menten kinetic analysis of substrate uptake by oocytes expressing AGT1-4F2hc; conditions: AGT1-4F2hc in oocytes; ratio to Vmax value of L-aspartic acid; mean value ± standard error
Protocol: (§1) The oocyte were allowed to stand for 30 minutes in a sodium-free uptake solution (100 mM choline chloride, 2 mM potassium chloride, 1.8 mM calcium chloride, 1 mM magnesium chloride and 5 mM HEPES; pH 7.4) containing ^14 C-aspartic acid (20 μM) as a substrate and an uptake rate of the substrate was measured by the count of radioactivity incorporated into the cells.
(§2) The Michaelis-Menten kinetic analysis was conducted by investigating the change in the ratio of uptake of aspartic acid by the difference in the substrate aspartic acid concentration.
(§3) The aspartic acid uptake experiment was carried according to the method mentioned in the above Example 2(2) using the oocyte into which a cRNA of a gene of a fusion protein of AGT1 with 4F2hc or with rBAT (AGT1-4F2hc or AGT1-rBAT) was injected.
(§4) The Michaelis-Menten kinetic analysis was similarly carried out in a fusion protein of AGT1 with 4F2hc (AGT1-4F2hc) in glutamic acid and Km value and Vmax value were calculated.

[3] = target: T1, AGT1-4F2hc fusion protein; assay: Uptake of radio-labeled amino acids by oocytes expressing AGT1-4F2hc; assay type: cell-based; conditions: oocyte injected with AGT1-4F2hc cRNA, 14C compound as substrate
From the text: With regard to a substrate, various compounds which were labeled with radioactivity were used instead of ^14C-aspartic acid.

AGT1-rBAT fusion protein = target: T2, AGT1-rBAT fusion protein (Mus musculus, UniProt Q91WN3+Q91WV7); assay: Uptake of 14C-aspartic acid by oocytes expressing AGT1-rBAT; assay type: cell-based; conditions: oocyte injected with AGT1-rBAT cRNA; 14C-aspartic acid 20 μM, 30 minutes, compared with water-injected control
T2 construct: expressed in transfected cells; host or cells: oocyte injected with AGT1-rBAT fusion protein gene cRNA
T2 sequence (Q91WN3+Q91WV7 with tags, fused parts or gaps): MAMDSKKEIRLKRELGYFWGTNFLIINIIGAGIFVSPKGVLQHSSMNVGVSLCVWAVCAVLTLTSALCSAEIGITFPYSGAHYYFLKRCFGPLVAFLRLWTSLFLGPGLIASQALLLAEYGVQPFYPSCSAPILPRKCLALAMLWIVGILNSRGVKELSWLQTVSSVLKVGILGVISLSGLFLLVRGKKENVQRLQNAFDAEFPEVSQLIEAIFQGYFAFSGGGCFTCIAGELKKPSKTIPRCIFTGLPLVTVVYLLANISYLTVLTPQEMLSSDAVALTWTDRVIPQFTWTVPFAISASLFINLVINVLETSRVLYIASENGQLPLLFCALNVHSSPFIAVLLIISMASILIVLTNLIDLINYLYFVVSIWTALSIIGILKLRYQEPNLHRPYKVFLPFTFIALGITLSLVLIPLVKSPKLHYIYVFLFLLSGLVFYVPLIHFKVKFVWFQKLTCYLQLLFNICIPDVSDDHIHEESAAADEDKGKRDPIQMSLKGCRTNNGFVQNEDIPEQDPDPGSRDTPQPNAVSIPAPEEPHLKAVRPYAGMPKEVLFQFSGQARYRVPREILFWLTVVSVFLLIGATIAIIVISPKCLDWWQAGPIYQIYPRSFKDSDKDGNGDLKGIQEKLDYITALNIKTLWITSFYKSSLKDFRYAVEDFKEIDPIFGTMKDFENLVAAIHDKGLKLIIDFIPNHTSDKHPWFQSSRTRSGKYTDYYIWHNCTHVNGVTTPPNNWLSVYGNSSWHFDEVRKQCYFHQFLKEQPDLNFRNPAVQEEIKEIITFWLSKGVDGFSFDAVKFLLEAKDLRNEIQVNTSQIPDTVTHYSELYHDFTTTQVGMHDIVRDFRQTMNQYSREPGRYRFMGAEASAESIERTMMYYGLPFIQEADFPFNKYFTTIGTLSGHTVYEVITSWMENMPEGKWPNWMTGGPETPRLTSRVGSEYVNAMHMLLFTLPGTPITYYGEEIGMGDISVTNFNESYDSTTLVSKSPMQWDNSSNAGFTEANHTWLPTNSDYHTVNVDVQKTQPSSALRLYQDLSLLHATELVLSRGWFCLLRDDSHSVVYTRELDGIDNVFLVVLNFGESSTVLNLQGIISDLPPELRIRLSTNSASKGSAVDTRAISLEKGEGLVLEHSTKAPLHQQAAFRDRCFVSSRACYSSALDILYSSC

N[C@@H](CCC(=O)O)C(=O)O = assay: cells, lysate or membranes; conditions: other: substrate transport by AGT1-4F2hc in Xenopus oocytes, sodium-free uptake solution; mean value ± standard error; pH 7.4
Protocol: as §1, §2, §3, §4

[4] = substrate: N[C@@H](CC(=O)O)C(=O)O; assay: cells, lysate or membranes; conditions: other: AGT1-rBAT in Xenopus oocytes; pH 7.4

Molecule: N[C@@H](CS(=O)(=O)O)C(=O)O [L-cysteate]
- effect on uptake of 14C-aspartic acid mediated by AGT1-4F2hc (cis-inhibition) [1]: strongly inhibited

- effect on uptake of 14C-aspartic acid mediated by AGT1-4F2hc (cis-inhibition) [1]: did no affect
Molecule: γ-aminoisobutyric acid

Molecule: N[C@@H](CCCC(=O)O)C(=O)O [L-α-aminoadipate]
- effect on uptake of 14C-aspartic acid mediated by AGT1-4F2hc (cis-inhibition) [1]: no inhibition effect

- effect on uptake of 14C-aspartic acid mediated by AGT1-4F2hc (cis-inhibition) [1]: significant cis-inhibiting effect
- Vmax [2]: (1.00)
- uptake of radio-labeled substrate into the oocyte ([3]; listed as L-aspartic acid): substantial uptake
- uptake of radio-labeled substrate into the oocyte ([3]; listed as aspartic acid): higher uptake
- uptake of aspartic acid into the oocyte (AGT1-rBAT fusion protein): higher uptake
Molecule: N[C@@H](CC(=O)O)C(=O)O [L-Aspartic acid]

- effect on uptake of 14C-aspartic acid mediated by AGT1-4F2hc (cis-inhibition) [1]: did no affect
Molecule: NC1(C(=O)O)CC2CCC1C2 (stereo not drawn) [2-amino-2-norbornane-carboxylic acid]

- effect on uptake of 14C-aspartic acid mediated by AGT1-4F2hc (cis-inhibition) [1]: did no affect
Molecule: N[C@H](CC(=O)O)C(=O)O [D-aspartic acid]

Molecule: CC(C)[C@H]1CN[C@H](C(=O)O)[C@H]1CC(=O)O [dihydrokainate]
- effect on uptake of 14C-aspartic acid mediated by AGT1-4F2hc (cis-inhibition) [1]: no inhibition effect

- effect on uptake of 14C-aspartic acid mediated by AGT1-4F2hc (cis-inhibition) [1]: significant cis-inhibiting effect
Molecule: N[C@@H](CS)C(=O)O [cysteine]

- effect on uptake of 14C-aspartic acid mediated by AGT1-4F2hc (cis-inhibition) [1]: strongly inhibited
Molecule: NC(C(=O)O)C(O)C(=O)O (stereo not drawn) [threo-β-hydroxyaspartate]

Molecule: N[C@@H](CCC(=O)O)C(=O)O [L-Glutamic acid]
- effect on uptake of 14C-aspartic acid mediated by AGT1-4F2hc (cis-inhibition) [1]: significant cis-inhibiting effect
- Vmax [2]: 0.63 ± 0.10
- uptake of radio-labeled substrate into the oocyte [3]: substantial uptake

Molecule: AGT1-4F2hc fusion protein (Mus musculus)
- Km (N[C@@H](CCC(=O)O)C(=O)O): 21.8 ± 6.5 µM

Molecule: N[C@H](CCC(=O)O)C(=O)O [D-glutamic acid]
- effect on uptake of 14C-aspartic acid mediated by AGT1-4F2hc (cis-inhibition) [1]: did no affect

Molecule: O=C(O)[C@@H]1CN[C@@H](C(=O)O)C1 (relative stereo) [L-trans-pyrrolidine-2,4-dicarboxylate]
- effect on uptake of 14C-aspartic acid mediated by AGT1-4F2hc (cis-inhibition) [1]: no inhibition effect

Molecule: N[C@@H](CCS(=O)(=O)O)C(=O)O [L-homocysteate]
- effect on uptake of 14C-aspartic acid mediated by AGT1-4F2hc (cis-inhibition) [1]: no inhibition effect

Molecule: N[C@@H](COS(=O)(=O)O)C(=O)O [L-serine-O-sulfate]
- effect on uptake of 14C-aspartic acid mediated by AGT1-4F2hc (cis-inhibition) [1]: strongly inhibited

- effect on uptake of 14C-aspartic acid mediated by AGT1-4F2hc (cis-inhibition) [1]: did no affect
Molecule: N[C@@H](CSSC[C@H](N)C(=O)O)C(=O)O [cystine]

- effect on uptake of 14C-aspartic acid mediated by AGT1-4F2hc (cis-inhibition) [1]: strongly inhibited
Molecule: N[C@@H](CS)C(=O)O.O=S(=O)(O)O [L-cysteine sulfate]

B1: AGT1-rBAT fusion protein (Mus musculus) (protein)
chain: T2 sequence (Q91WN3+Q91WV7 with tags, fused parts or gaps)
- Km [4]: 20.1 ± 6.1 µM
